For experiment [1], the system named is M. truncatula. Kind of experiment: Lateral root emergence in M. truncatula. Format: in vivo, Medicago truncatula. Particulars: 10^−7 M; fold induction relative to the control; FIG. 7. As for the experimental part:
M. truncatula roots were treated with 10^−7 M CO4 or 10^−7 M NS-LCO and the effect on lateral root emergence was measured. The numbers in parentheses indicate the number of plants analyzed. The significance of the difference to the […] control plants, as measured using a t-test, is indicated. The treatments are measured as fold induction relative to the control. Error bars represent the standard error.
Accordingly, the disclosed method is limited in scope to treating non-leguminous plants, or seeds, seedlings or plant parts thereof.

For experiment [2], the system named is rice trichoblasts (root hair cells). Kind of experiment: Calcium spiking (YC3.6 imaging) in rice trichoblasts (root hair cells). Format: cell-based, Oryza sativa cv Nipponbare. Particulars: 10^−5 M, FIG. 5, FIG. 6. As for the experimental part:
Mycorrhizal induced calcium responses were measured as described previously (14). Transgenic Oryza sativa Nipponbare lines carrying Yellow Cameleon 3.6 (YC3.6) FRET-based calcium sensor was used to detect calcium spiking. YC3.6 was imaged on a Nikon Eclipse Ti inverted microscope (Nikon, Japan) equipped with an OptoLED Illuminator (model OptoLED, Cairn Research Ltd, UK). YC3.6 was excited at a wavelength of 455 nm using a royal blue LED and was captured with a charge-coupled device (CCD) camera (model RETIGA-SRV, Qimaging, Canada). Emitted fluorescence was separated by an image splitter with a dichroic mirror (model Optosplit II, Cairn Research Ltd, UK) and then passed through a fluorescence filter set. Images were collected every 5 seconds with 1-second exposure and analyzed using MetaFluor (Molecular Devices, Sunnyvale, Calif., USA).
Both LCOs and COs are Required to Induce Calcium Spiking in Trichoblasts. Rhizobia colonize legumes by root hair cells (trichoblasts), whereas AM fungi colonize roots via non-root hair epidermal cells (atrichoblasts). Thus, these different root epidermal cell types may respond differently to COs and LCOs. To test this, we directly compared trichoblast and atrichoblast responses using high concentrations of CO4 in rice. Calcium oscillations observed in rice following treatments of CO4 were restricted to atrichoblasts, with no responses in trichoblasts even with CO4 treatments of 10^−5 M (FIG. 5). This preferential nature of rice atrichoblasts to respond to the AM signals is consistent with a preference for AM fungi to colonize the root via atrichoblasts (26). It is possible that either AM fungi produce signalling molecules other than S-LCO, NS-LCO and CO4 that induce calcium oscillations in rice trichoblasts, or that the mix of signalling molecules is important. To test this, we assessed induction of calcium oscillations by an equimolar mix of 10^−5 M S-LCO, NS-LCO, and CO4.

Experiment [3] relates to Rice. Kind of experiment: Foliar treatment of rice. In kind it is in vivo. The following applies: foliar 10^−6 M with 0.05% Silwet L-77; for shoot length: FIG. 12A. As for the experimental part: Rice seeds were surface sterilized using 2% bleach. Seeds were then germinated on damp germination paper in sterile Petri dishes for 5 days. The seedlings were then transferred to Fahraeus medium plates containing damp germination paper. The plates were wrapped in Parafilm®, and the roots part of the plate covered with aluminum foil.
The plants were grown at room temperature under continuous light for 21 days. The plants were then transferred to moistened SUNGRO® soil pots (8×8×10 cm) and grown for 3 days under greenhouse condition. The plants were hydrated by pouring water into the tray underneath the pots.
The soil surface was then covered with plastic wrap to prevent any liquid droplets from contacting the soil. Using painting brushes, the front, and back of the plant leaves were treated with 3 ml of chitin derived compounds (CO4 and CO8) at 10^−6 M or a control (0.5% ethanol), each including 0.05% of Silwet L-77 (surfactant). Eleven plants were treated with each solution. The plants were subsequently grown for 14 days, and the shoot length was measured. Once a week, half-strength Hoagland solution was added into the trays underneath the pots. The plants were grown for another 4 days, and the lengths of the shoot and root systems were measured.

The values below come from US10149472B2, “Chitin oligomers for use in promoting non-leguminous plant growth and development” (Wisconsin Alumni Research Foundation, priority 2015, dated 2018).

Take `CC(=O)N[C@H]1[C@H](O[C@H]2[C@H](O)[C@@H](NC(C)=O)C(O)O[C@@H]2CO)O[C@H](CO)[C@@H](O[C@@H]2O[C@H](CO)[C@@H](O[C@@H]3O[C@H](CO)[C@@H](O)[C@H](O)[C@H]3NC(C)=O)[C@H](O)[C@H]2NC(C)=O)[C@@H]1O` (some centres unmarked) [CO4, tetra-N-acetylchitotetraose]: the lateral root emergence result in experiment [1] is “could not induce lateral root emergence”. In addition, in experiment [2], the “calcium spiking in trichoblasts” value is listed as “no responses”. The shoot length result is given as “significantly increased” in experiment [3] (day 14 after treatment) and “significance was even higher” in experiment [3] (day 18 after treatment). In addition, the root system length entry in experiment [3] (day 18 after treatment, FIG. 12B) is on record as “significantly promoted”.
